What follows are molecules tested against Glutamate [NMDA] receptor (assay: The compound was tested for its ability to block PCP N-methyl-D-aspartate glutamate receptor at the PCP (phencyclidine) binding site in postmortem human frontal cortex.).
In the case of `NCCCC12CC3CC(CC(C3)C1)C2`, the Ki is reported as 9.5 µM.
Molecule `CN1CC[C@@]23CCCC[C@@H]2[C@@H]1Cc1ccc(O)cc13` [DEXTRORPHAN] has a Ki of 0.22 µM.
`NCCC12CC3CC(CC(C3)C1)C2` showed a Ki of 3.8 µM.
In the case of `CN(C)C12CC3CC(C)(CC(C)(C3)C1)C2`, the Ki is reported as 4.44 µM.
Molecule `CCC12CC3CC(N)(C1)CC(c1ccccc1)(C3)C2` (stereo not drawn) has a Ki of 4.08 µM.
With `CNC12CC3CC(C)(CC(C)(C3)C1)C2` the Ki was 1.61 µM.
Molecule `NC12CC3CC(C1)CC(c1ccccc1)(C3)C2` has a Ki of 15.2 µM.
Work on `CNC12CC3CC(CC(C3)C1)C2` yielded a Ki of 21.7 µM.
With `CNC1(c2ccccc2Cl)CCCCC1=O` (racemic) [KETAMINE] the Ki was 0.42 µM.
With `CCC12CC3CC(CC(N)(C3)C1)C2` the Ki was 0.6 µM.
Molecule `CN(C)C12CC3CC(CC(C3)C1)C2` has a Ki of 20.8 µM.
For `NCC12CC3CC(CC(C3)C1)C2`, the Ki was 33.3 µM.
`c1ccc(C2(N3CCCCC3)CCCCC2)cc1` [PHENCYCLIDINE] was tested, and the Ki was 0.023 µM.
In the case of `NCCCCC12CC3CC(CC(C3)C1)C2`, the Ki is reported as 17.4 µM.
`CCNC12CC3CC(C)(CC(C)(C3)C1)C2` was tested, and the Ki was 1.72 µM.
Work on `OC(CCN1CCCC1)(c1ccccc1)C1CCCCC1` (racemic) [PROCYCLIDINE] yielded a Ki of 1.7 µM.
For `NC12CC3CC(CC(C3)C1)C2` [AMANTADINE], the Ki was 10.5 µM.
Work on `CC(C)(C)N1CCC(c2ccccc2)(c2ccccc2)CC1` [BUDIPINE] yielded a Ki of 11.7 µM.
Molecule `CC(C)C12CC3CC(CC(N)(C3)C1)C2` has a Ki of 7.21 µM.
`Cc1ccccc1C(OCCN(C)C)c1ccccc1` (stereo not drawn) [ORPHENADRINE] was tested, and the Ki was 6 µM.
With `COc1ccc2c(c1)[C@]13CCCC[C@@H]1[C@H](C2)N(C)CC3` [DEXTROMETHORPHAN] the Ki was 1.68 µM.
`CCC12CC3CC(N)(C1)CC(CC)(C3)C2` was tested, and the Ki was 0.19 µM.
`CC12CC3CC(C)(C1)CC(CCN)(C3)C2` gave a Ki of 0.79 µM.
